# Results as given in patent US20240158447A1, “PEPTIDES FOR USE IN THE TREATMENT OR PREVENTION OF MYOCARDIAL DAMAGE” (THE UNIVERSITY OF WESTERN AUSTRALIA, priority 2020, published 2024).
# “Also recorded” adds a separate entry of the source.
# Columns and labels:
# [1] = tested on: wild type cardiac myocytes; assay: Intracellular calcium (Fura-2) after H2O2 in cardiac myocytes; format: cell-based, mouse; details: 20 min incubation with 0.5-1 μM peptide; 30 μM H2O2 5 min; FIG. 3(a)
# Experimental: (§1) Adult male C57BL/6J mice were anesthetized with pentobarbitone sodium (240 mg/kg) via intraperitoneal injection prior to excision of the heart. Ventricular myocytes were isolated. Mouse hearts were cannulated onto a Langendorff apparatus via the aorta and perfused retrogradely with Krebs-Henseleit Buffer (KHB) containing (in mM): 120 NaCl, 25 NaHCO3, 4.8 KCl, 2.2 MgSO4, 1.2 NaH2PO4 and 11 glucose (pH=7.35 with O2/CO2 at 37° C.) for 4 min at 37° C. Hearts were then perfused with KHB supplemented with 2.4 mg/ml collagenase B for 3 min, then 8 min perfusion in the presence of 40 μM calcium. […]
# (§2) All in vitro studies were performed in freshly isolated myocytes at 37° C. […] Following a 20 min incubation with 0.5-1 μM AID(S)-TAT, AID-TAT, peptide 6 or peptide 7, fluorescent signal of individual myocytes was quantified using Metamorph 6.3 to measure signal intensity of manually traced cell regions. […]
# Intracellular calcium was monitored in cardiac myocytes using the fluorescent indicator Fura-2 AM (Fura-2, 1 μM, ex 340/380 nm, em 510 nm, Molecular Probes). […] Fluorescence at 340/380 nm excitation and 510 nm emission were measured at 1 minute intervals with an exposure of 50 ms before and after exposure to 30 μM H2O2 (5 min) and 10 U/ml catalase (5 min). Ratiometric 340/380 nm signal was quantified and reported as a percentage from the baseline pre-treatment average.
# [2] = biological target: T1, L-type Ca^2+ channel β2 subunit (Homo sapiens, UniProt Q08289); assay: Binding competition assay of variant peptides for the β2 subunit (AID-coated beads, heart lysate, SDS-PAGE); details: competition with bead-bound AID peptide, whole heart lysate, immunoblot densitometry; FIG. 2
# T1 construct: from tissue; host or cells: whole heart (cardiac) lysate
# T1 sequence (Q08289 whole entry): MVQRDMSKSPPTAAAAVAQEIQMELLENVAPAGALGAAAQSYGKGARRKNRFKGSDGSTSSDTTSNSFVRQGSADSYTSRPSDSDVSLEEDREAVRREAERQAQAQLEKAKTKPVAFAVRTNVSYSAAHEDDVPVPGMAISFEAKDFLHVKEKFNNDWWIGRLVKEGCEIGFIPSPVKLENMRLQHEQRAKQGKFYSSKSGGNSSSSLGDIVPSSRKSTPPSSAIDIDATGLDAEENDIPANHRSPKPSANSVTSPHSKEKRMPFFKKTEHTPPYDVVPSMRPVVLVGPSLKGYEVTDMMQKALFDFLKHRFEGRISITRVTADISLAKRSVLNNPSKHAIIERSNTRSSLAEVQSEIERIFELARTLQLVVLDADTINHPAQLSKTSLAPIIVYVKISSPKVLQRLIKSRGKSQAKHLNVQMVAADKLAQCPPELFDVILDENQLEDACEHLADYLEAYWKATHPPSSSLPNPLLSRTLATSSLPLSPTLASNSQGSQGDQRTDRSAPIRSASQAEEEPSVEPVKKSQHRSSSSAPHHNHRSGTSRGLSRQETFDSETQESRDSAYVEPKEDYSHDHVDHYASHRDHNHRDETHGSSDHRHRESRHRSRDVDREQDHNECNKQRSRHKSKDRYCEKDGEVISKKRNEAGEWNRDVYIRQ
# Experimental: The affinity of each of the variant peptides to the β2 subunit was investigated through binding competition assays.
# PureProteome™ NHS FlexiBind Magnetic Beads (Cat. #LSKMAGN04, Merck) were used following manufacturer recommendations. Aminohexanoic acid linked AID peptide was bound to the NHS flexibind magnetic beads at a concentration of more than 2 mg/mL to obtain saturation of the beads with peptide. Beads were first primed with an equilibration buffer (1 mM HCL) to prepare them for binding. The Ahx-AID peptide was dissolved in wash/coupling buffer (PBS, pH 7.4) and added to the beads. The beads-AID peptide mixture was left to mix uniformly on a multiplate shaker at a speed of 300 rpm at room temperature for 2 hours. To reduce non-specific binding the beads were incubated in Quench Buffer (100 mM Tris-HCl, 150 mM NaCl, pH 8.0) at room temperature for 1 hour.
# The AID-peptide bound beads were split into 5 aliquots for the 5 samples prepared in Table 5. The whole heart lysate added to each of the peptide-bound beads to allow competitive binding for 2 hours at room temperature.
# Upon completion, the conjugate was washed in coupling buffer, to remove unbound fraction. SDS sample buffer was added to the beads, with the tubes then heated for 5 minutes at 95° C. The eluted sample stored at −20° C. to be run through sodium dodecyl sulfate-polyacrymalide gel electrophoresis (SDS-PAGE) to determine the binding affinity of each of the variants.
# The use of streptavidin dynabeads and biotinylated peptide was developed to improve the binding affinity assays. The peptide was initially biotinylated using EZ-link amine-PEG11-biotin (Spacer arm: 53.2 Å, Thermofisher Scientific, Cat. #26136) which was dissolved in 0.1M MES buffer ((2-N-morpholino)-ethanesulfonic acid) at a concentration of 1 mM. Just prior to the reaction, 0.1M EDC (N-(3-Dimethylaminopropyl)-N′-ethylcarbodiimide hydrochloride) was dissolved in MES buffer. In order to achieve complete biotinylation of the AID peptide, a 50× molar excess of biotin to peptide was required, with the total volumes of each component required shown in Table 6.
# Each 78 μL aliquot of the biotinylated peptide shown in […] was enough for 6 reactions, covering the range of concentrations in which the heart lysate was again prepared with varying concentrations of the variant AID peptides according to Table 7.
# The 78 μL aliquot of biotinylated AID-peptide was mixed with streptavidin dynabeads (1 mg Dynabeads per every 200 pmol biotinylated peptide) for half an hour at room temperature. The heart lysate ([…]) was incubated with the variant peptides at room temperature for 2 hours. After removing all unbound peptide from the beads, they were mixed with the pre-bound heart lysate for 2 hours at room temperature. The unbound fraction was removed. […]
# [3] = tested on: wildtype cardiac myocytes; assay: Mitochondrial flavoprotein oxidation after BayK(−), wildtype cardiac myocytes (Example 6); format: cell-based, mouse; details: wild type hearts, FIG. 4
# Experimental: as §1, with “calcium. Following perfusion, aorta and atria were removed, and ventricles gently teased apart and triturated to dissociate myocytes into suspension.” for “calcium.”
# as §2
# Autofluorescence was used to measure flavoprotein oxidation in cardiac myocytes based on previously described methods (480 nm ex, 535 nm em). […] Fluorescence was reported as a percentage from the baseline pre-treatment average.
# [4] = tested on: wild type cardiac myocytes; assay: Intracellular superoxide (DHE) after H2O2 in cardiac myocytes; format: cell-based, mouse; details: 20 min incubation with 0.5-1 μM peptide; 30 μM H2O2 5 min; FIG. 3(b)
# Experimental: as §1, with “calcium. Following perfusion, aorta and atria were removed, and ventricles gently teased apart and triturated to dissociate myocytes into suspension.” for “calcium.”
# as §2
# Superoxide generation was assessed in cardiac myocytes using the fluorescent indicator dihydroethidium (DHE, 5 μM, 515-560 nm ex filter, 590 long pass em, Merck). […] Fluorescence was reported as percentage change in the slope of the signal measured at 20-40 min (treatment) over 1-10 min (pre-treatment).
# [5] = tested on: myocytes isolated from cTnI-G203S mutant mouse hearts; assay: Mitochondrial flavoprotein oxidation after BayK(−), myocytes from HCM hearts (Example 6); format: cell-based; details: FIG. 5
# Experimental: FIG. 5 presents the effect of mutant peptides on flavoprotein oxidation, a measure of metabolic activity and oxygen consumption in myocytes isolated from cTnI-G203S mutant mouse hearts that are hypertrophic.
# All in vitro studies were performed in freshly isolated myocytes at 37° C. […] Following a 20 min incubation with 0.5-1 μM AID(S)-TAT, AID-TAT, peptide 6 or peptide 7, fluorescent signal of individual myocytes was quantified using Metamorph 6.3 to measure signal intensity of manually traced cell regions. An equivalent region not containing cells was used for background and was subtracted.
# Autofluorescence was used to measure flavoprotein oxidation in cardiac myocytes based on previously described methods (480 nm ex, 535 nm em). Fluorescent images were taken at 1 min intervals with 1 s exposure before and after exposure to L-type Ca2+ channel agonist BayK(−). Fluorescence was reported as a percentage from the baseline pre-treatment average.
sequence,measurement,setting,value
QQQEEDLKGYLDWITQAE (Variant P7),H2O2 induced increase in intracellular Ca2+ (Fura 2),[1],altered the increase in Fura 2 following H2O2; also recorded: more effective at decreasing H2O2 induced increases in intracellular Ca^2+ (Fura 2) and superoxide production (DHE) than AID-TAT
same,binding affinity (K0.5) for the target β2 subunit versus the original AID peptide,[2],greater binding affinity (lower K0.5)
same,flavoprotein oxidation in comparison with AID-TAT peptide,[3],statistically significant reduction in flavoprotein oxidation in comparison with AID-TAT peptide
same,H2O2 induced superoxide production (DHE),[4],more effective at decreasing H2O2 induced increases in intracellular Ca^2+ (Fura 2) and superoxide production (DHE) than AID-TAT
same,flavoprotein oxidation in comparison with AID-TAT peptide,[5],statistically significant reduction in flavoprotein oxidation in comparison with AID-TAT peptide
